Source: ChEMBL document CHEMBL1146692, “Highly potent PDE4 inhibitors with therapeutic potential” (Bioorg Med Chem Lett, 2004)
pIC50: −log10 of the molar value.

How the values were obtained:
Rattus norvegicus [1] = assay: Inhibition of LPS-induced TNF-alpha production in rats 0.5 hr after peroral administration; format: functional; details: po, read-out: ID50 (the source's name)
Phosphodiesterase 4 = Phosphodiesterase 4 (Homo sapiens, UniProt P27815+Q08499+Q07343+Q08493); assay: Inhibition of phosphodiesterase 4 (PDE4) prepared from human U937 cells; format: cell-based; details: u-937
Rattus norvegicus [2] = assay: Inhibition of LPS-induced TNF-alpha production in rats at 3 mg/kg peroral dose after 0.5 hr; format: functional; details: route oral
Rattus norvegicus [3] = assay: Inhibition of LPS-induced TNF-alpha production in rats at 1 mg/kg peroral dose after 0.5 hr; format: functional; details: route oral
Homo sapiens = species: Homo sapiens; assay: Inhibition of LPS-induced TNF-alpha production in human whole blood; format: functional, organism-based
Rattus norvegicus [4] = assay: Inhibition of gastric emptying in rats after peroral administration; format: functional; details: Stomach, po, read-out: ID50 (the source's name)
Cavia porcellus [5] = assay: Inhibition of SRS-A-mediated bronchoconstriction and airway microvascular leakage in sensitized guinea pigs at 0.15 mg/kg 1 hr after oral dose; format: functional; details: Lung, read-out: ID50 (the source's name)
Cavia porcellus [6] = assay: Inhibition of SRS-A-mediated bronchoconstriction and airway microvascular leakage in sensitized guinea pigs at 0.5 mg/kg 1 hr after oral dose; format: functional; details: Lung, read-out: ID50 (the source's name)

SMILES	ED50 (Rattus norvegicus [1]) [mg/kg]	IC50 (Phosphodiesterase 4) [nM]	other results
COc1ccc(C2(C#N)CCN(C3(C(=O)NO)CC3)CC2)cc1OC1CCCC1	2	4.6	
COc1ccc(C2(C#N)CCN(CC(=O)NO)CC2)cc1OC1CCC1	0.03	0.18	
COc1ccc(C2(C#N)CCN([C@H](C)C(=O)NO)CC2)cc1OC1CCCC1		0.91	inhibition in vivo at 3 mg/kg (Rattus norvegicus [2]): 26%
COc1ccc(C2(C#N)CCN(CC(=O)O)CC2)cc1OCC1CC1		> 100	inhibition in vivo at 1 mg/kg (Rattus norvegicus [3]): 12%
CC(C)Oc1ccc(C2(C#N)CCN(CC(=O)NO)CC2)cc1OC1CCCC1		> 30	
CCOc1ccc(C2(C#N)CCN(CC(=O)O)CC2)cc1OC1CCCC1		2500	
COc1ccc(C2(C#N)CCN(CC(=O)NO)CC2)cc1OC	0.23	4.7	
CCOc1ccc(C2(C#N)CCN(CC(=O)NO)CC2)cc1OC1CCCC1	0.7	6.2	
COc1ccc(C2(C#N)CCN(CC(=O)NO)CC2)cc1OC1CCCC1	0.04	0.08	pIC50 (Homo sapiens): 8.05; ED50 (Rattus norvegicus [4]): 0.3 mg/kg; ED50 (Cavia porcellus [5]): 0.3 mg/kg
COc1ccc(C2(C#N)CCN(CC(=O)O)CC2)cc1OC1Cc2ccccc2C1		67	inhibition in vivo at 3 mg/kg (Rattus norvegicus [2]): 29%
COc1ccc(C2(C#N)CCN([C@@H](C)C(=O)O)CC2)cc1OC1CCCC1		> 300	
COc1ccc(C2(C#N)CCN(CC(=O)NO)CC2)cc1OCC1CC1	0.03	0.29	pIC50 (Homo sapiens): 8.68; ED50 (Rattus norvegicus [4]): 0.3 mg/kg; ED50 (Cavia porcellus [5]): 0.3 mg/kg
CCOc1cc(C2(C#N)CCN(CC(=O)O)CC2)ccc1OC		> 100	inhibition in vivo at 1 mg/kg (Rattus norvegicus [3]): 0%
COc1ccc([C@]2(C#N)CC[C@@H](C(=O)O)CC2)cc1OC1CCCC1 [CILOMILAST]	1.7		ED50 (Rattus norvegicus [4]): 5.7 mg/kg; ED50 (Cavia porcellus [5]): 4.5 mg/kg
COc1ccc(C2(C#N)CCN(CC(=O)NO)CC2)cc1OC(C)C	0.09	1	
COc1ccc(C2(C#N)CCN(CC(=O)O)CC2)cc1OC1CCCC1		66	inhibition in vivo at 3 mg/kg (Rattus norvegicus [2]): 74%
COc1ccc(C2(C#N)CCN(C(C)(C)C(=O)NO)CC2)cc1OC1CCCC1		34	
COc1ccc(C2(C#N)CCN(C3(C(=O)O)CC3)CC2)cc1OC1CCCC1		> 1000	
N#CC1(c2ccc(OC(F)F)c(OC3CCCC3)c2)CCN(CC(=O)NO)CC1	0.02	0.051	
COc1ccc(C2(C#N)CCN(CC(=O)O)CC2)cc1OC1CCC1		> 100	
CCOc1cc(C2(C#N)CCN(CC(=O)NO)CC2)ccc1OC	0.04	0.52	pIC50 (Homo sapiens): 8.30; ED50 (Rattus norvegicus [4]): 0.7 mg/kg; ED50 (Cavia porcellus [5]): 0.04 mg/kg
COc1ccc(C2(C#N)CCN(C(C)(C)C(=O)O)CC2)cc1OC1CCCC1		> 1000	
COc1ccc(C2(C#N)CCN([C@@H](C)C(=O)NO)CC2)cc1OC1CCCC1		5.9	inhibition in vivo at 3 mg/kg (Rattus norvegicus [2]): 49%
CC(C)Oc1ccc(C2(C#N)CCN(CC(=O)O)CC2)cc1OC1CCCC1		> 1000	
COc1ccc(C2(C#N)CCN([C@H](C)C(=O)O)CC2)cc1OC1CCCC1		> 300	
COc1ccc(C2(C#N)CCN(CC(=O)O)CC2)cc1OC		> 100	
COc1ccc(C2(C#N)CCN(CC(=O)O)CC2)cc1OC(C)C		> 100	
N#CC1(c2ccc(OC(F)F)c(OC3CCCC3)c2)CCN(CC(=O)O)CC1	1.1	65	ED50 (Cavia porcellus [6]): 4.2 mg/kg; pIC50 (Homo sapiens): 6.08; ED50 (Rattus norvegicus [4]): 4.7 mg/kg
